This is an account of results in US20070066628A1 (Wyeth, priority 2005, published 2007).

Each structure is given as a SMILES string. Where “and” joins values, the source holds several entries; their conditions need not be identical. Equal values may be shown once.

For assay [1], the system named is rat uterine decidualization. In words: Rat decidualization assay. The note with it: s.c.; for Estimated EC50 for uterine weight (decidual response): ovariectomized female Sprague-Dawley rats, once daily for seven days, individual studies; for Estimated average EC50 for uterine weight (decidual response): ovariectomized rats, average of dose-response curves.
Description: (2) Rat Decidualization Assay
(a) Objective: This procedure is used to evaluate the effect of progestins and antiprogestins on rat uterine decidualization and compares the relative potencies of various test compounds.
(b) Methods • A. Reagents • Test compounds are dissolved in 100% ethanol and mixed with corn oil (vehicle). Stock solutions of the test compounds in oil (the Mazola™ oil) are then prepared by heating (˜80° C.) the mixture to evaporate ethanol. Test compounds are subsequently diluted with 100% corn oil or 10% ethanol in corn oil prior to the treatment of animals. […] Ovariectomy is performed at least 10 days prior to treatment to reduce circulating sex steroids. Animals are housed under 12 hours light/dark cycle and given standard rat chow and water ad libitum. • C. […] Test compounds in 0.2 mL vehicle are administered by subcutaneous injection in the nape of the neck or by gavage using 0.5 mL. The animals are treated once daily for seven days. […] In all studies, a control group receiving vehicle is included. Determination of dose-response curves is carried out using doses with half log increases (e.g. 0.1, 0.3, 1.0, 3.0 mg/kg). • E. Decidual Induction • Approximately 24 hours after the third injection, decidualization is induced in one of the uterine horns by scratching the antimesometrial luminal epithelium with a blunt 21 G needle. The contralateral horn is not scratched and serves as an unstimulated control. Approximately 24 hours following the final treatment, rats are sacrificed by CO2 asphyxiation and body weight measured. Uteri are removed and trimmed of fat. […] The Huber M-estimator is used to down weight the outlying transformed observations for both dose-response curve fitting and one-way analysis of variance. JMP software (SAS Institute, Inc.) is used for both one-way ANOVA and non-linear dose-response analyses. • G. Reference Compounds:
All progestin reference compounds are run in full dose-response curves and the EC50 for uterine wet weight is calculated.
Another assay concerns the target T1, PR (Homo sapiens, UniProt P06401).
T1 construct: Frozen T47D cells were thawed in a 37° C. water bath and diluted to 280,000 cells/mL in culture medium; endogenous in cells; host or cells: T47D cells
T1 sequence (P06401 1-933): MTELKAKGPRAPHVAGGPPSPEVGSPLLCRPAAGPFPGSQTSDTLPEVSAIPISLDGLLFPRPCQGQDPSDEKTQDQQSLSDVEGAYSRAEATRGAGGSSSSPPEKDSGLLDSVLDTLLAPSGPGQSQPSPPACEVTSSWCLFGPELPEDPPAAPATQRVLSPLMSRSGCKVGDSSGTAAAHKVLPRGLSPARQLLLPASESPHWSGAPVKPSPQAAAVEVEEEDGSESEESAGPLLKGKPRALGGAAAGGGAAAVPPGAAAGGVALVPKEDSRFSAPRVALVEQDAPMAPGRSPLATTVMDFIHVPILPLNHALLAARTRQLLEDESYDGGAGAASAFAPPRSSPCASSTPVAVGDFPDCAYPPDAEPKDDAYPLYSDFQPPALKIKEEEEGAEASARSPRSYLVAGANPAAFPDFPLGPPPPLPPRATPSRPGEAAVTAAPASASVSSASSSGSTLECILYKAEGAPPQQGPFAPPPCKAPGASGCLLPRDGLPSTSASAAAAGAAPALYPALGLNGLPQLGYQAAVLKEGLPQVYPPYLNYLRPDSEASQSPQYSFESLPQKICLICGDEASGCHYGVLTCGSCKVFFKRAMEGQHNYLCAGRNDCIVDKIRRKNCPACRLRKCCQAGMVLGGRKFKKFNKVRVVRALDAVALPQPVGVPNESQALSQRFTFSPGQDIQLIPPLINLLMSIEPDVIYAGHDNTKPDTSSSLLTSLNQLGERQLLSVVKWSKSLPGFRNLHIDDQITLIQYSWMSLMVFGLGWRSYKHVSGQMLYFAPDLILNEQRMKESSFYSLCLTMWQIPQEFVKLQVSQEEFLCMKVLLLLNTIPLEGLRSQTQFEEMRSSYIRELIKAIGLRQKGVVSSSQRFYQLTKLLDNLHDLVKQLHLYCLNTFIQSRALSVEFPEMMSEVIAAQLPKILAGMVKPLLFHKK
In words: T47D cell alkaline phosphatase assay. Type of assay: cell-based. The note with it: T47D cells, agonist mode; read-out: Alk. Phos. EC50. The procedure:
(4) T47D Cell Alkaline Phosphatase Assay
(a) Purpose: To identify progestins or antiprogestins by determining a compound's effect on alkaline phosphatase activity in T47D cells.
(b) Methods: • A. Reagents • (i) Culture medium: DMEM:F12 (1:1) (GIBCO, BRL) supplemented with 5% (v/v) charcoal stripped fetal bovine serum (not heat-inactivated), 100 U/mL penicillin, […] streptomycin, and 2 mM GlutaMax (GIBCO, BRL). • (ii) Alkaline Phosphatase Assay Buffer • I. 0.1 M Tris-HCl, pH 9.8, containing 0.2% the Triton™ X-100 reagent • II. 0.1 M Tris-HCl, pH 9.8 containing 4 mM p-nitrophenyl phosphate (Sigma). • B. Cell Culture and Treatment • Frozen T47D cells were thawed in a 37° C. water bath and diluted to 280,000 cells/mL in culture medium. To each well in a 96-well plate (Falcon, Becton Dickinson Labware), 180 μL of diluted cell suspension was added. Twenty μL of reference or test compounds diluted in the culture medium was then added to each well. […] The cells were incubated at 37° C. in a 5% CO2/humidified atmosphere for 24 hours. • Note: For high throughput screening, one concentration of each compound was tested at 0.3 mg/mL. […]
Square root-transformed data were used for analysis of variance and nonlinear dose response curve fitting for both agonist and antagonist modes. […] EC50 or IC50 values were calculated from the retransformed values. […]

With `CC(=O)O[C@]1(C(C)=O)CC[C@H]2[C@@H]3C[C@H](C)C4=CC(=O)CC[C@]4(C)[C@H]3CC[C@@]21C` [MPA, medroxyprogesterone acetate], in assay [1], the “Estimated EC50 for uterine weight (decidual response)” value (from here on “Estimated EC50 for uterine weight”) is 0.42 mg/kg, s.c. and 0.39 mg/kg, s.c. (2×).

For `CC(=O)[C@H]1CC[C@H]2[C@@H]3CCC4=CC(=O)CC[C@]4(C)[C@H]3CC[C@]12C` [Progesterone], in assay [1], the “Estimated EC50 for uterine weight” value is recorded as 5.50 mg/kg, s.c and the “Estimated average EC50 for uterine weight (decidual response)” value (from here on “Estimated average EC50”) is recorded as 5.62 mg/kg, s.c.

As to `C#C[C@]1(O)CC[C@H]2[C@@H]3CCC4=CC(=O)CC[C@@H]4[C@H]3CC[C@@]21CC` [Levonorgestrel], in assay [1], the “Estimated EC50 for uterine weight” value is 0.08 mg/kg, s.c. and 0.12 mg/kg, s.c. and 0.09 mg/kg, s.c. (2×); the “Estimated average EC50” value is given as 0.10 mg/kg, s.c.

With `C#C[C@]1(O)CC[C@H]2[C@@H]3CCC4=CC(=O)CC[C@@H]4[C@H]3C(=C)C[C@@]21CC` [3-Ketodesogestrel], in assay [1], the “Estimated average EC50” value is reported as 0.10 mg/kg, s.c.

As a reminder, the EC50 is the concentration needed to bring the measured effect to its halfway point. As for `Cn1c(C#N)ccc1-c1ccc2c(c1)C(C)(C)CC2O` (stereo not shown) [Example 3, 5-(1-hydroxy-3,3-dimethyl-2,3-dihydro-1H-inden-5-yl)-1-methyl-1H-pyrrole-2-carbonitrile], at PR, the EC50 came out at 18.6 nM.
